Results: the supplement of paper PMC5579334

Columns and labels:
HS-PSS [1] = experiment: relative IC50 (inflection point of fitted dose-response curve, CellTox-Green cytotoxicity, 72 h; top asymptote may be below 50%); higher = less potent
Method in brief: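 MPNST cell lines and primary human Schwann cells were incubated 72 h at 37 °C in 384-well plates holding five 10-fold compound dilutions. CellTox-Green was added before seeding at a final 1:1000 dilution and reported fluorescence from DNA released by disrupted cells. Signals were scaled to vehicle and positive-control wells, and cultures failing plate quality control were dropped. Drug sensitivity score and relative IC50 come from four-parameter logistic fits, with IC50 censored at the top concentration.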

HS-PSS [2] = experiment: relative IC50 (inflection point of fitted dose-response curve, CellTiter-Glo viability, 72 h; top asymptote may be below 50% inhibition); higher = less potent
Method in brief: (§1)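 Viability was scored by CellTiter-Glo ATP luminescence, scaled from vehicle to positive-control wells, with duplicates averaged where present. The cells, MPNST lines and primary human Schwann cells at 750–1000 per well, sat 72 h at 37 °C, 5% CO2, in 384-well plates preprinted with each compound at five concentrations in 10-fold steps. Four-parameter logistic fits were run on the data. These fits give drug sensitivity score and relative IC50 censored at the top concentration, and percent inhibition is reported at the top concentration.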

YST-1 = experiment: as above
Method in brief: as §1

HS-Sch-2 = experiment: as above
Method in brief: as §1

Row | Compound | relative IC50 (HS-PSS [1]) [µM] | relative IC50 (HS-PSS [2]) [µM] | relative IC50 (YST-1) [µM] | relative IC50 (HS-Sch-2) [µM]
1 | Cn1cnc2c(F)c(Nc3ccc(Br)cc3F)c(C(=O)NOCCO)cc21 [Binimetinib] | > 1 | > 1 | > 1 | –
2 | CC(C)(C)C[C@@H]1N[C@@H](C(=O)N[C@H]2CC[C@H](O)CC2)[C@H](c2cccc(Cl)c2F)[C@]12C(=O)Nc1cc(Cl)ccc12 | > 10 | 3.28 | 0.14 | –
3 | Cn1ncc(Cl)c1-c1cc(C(=O)N[C@H](CN)Cc2ccc(F)c(F)c2)oc1Cl [Uprosertib] | > 10 | > 10 | – | > 10
4 | C[C@H](Nc1ncnc2nc[nH]c12)c1cc2cccc(Cl)c2c(=O)n1-c1ccccc1 [Duvelisib] | – | > 0.5 | – | –
5 | CNC(=O)c1ccc(-c2cnc3ncc(Cc4ccc5ncccc5c4)n3n2)cc1F [NVP-INC280] | > 1 | > 1 | – | –
6 | O=C(Nc1ccc(-c2ccnc(Nc3ccc(N4CCOCC4)cc3)n2)cc1)[C@H]1CCCN1 [XL019] | > 10 | 2.85 | – | –
7 | FC(F)(F)c1ccc(CNc2ccc(Cc3c[nH]c4ncc(Cl)cc34)cn2)cn1 [Pexidartinib] | > 10 | 1.74 | – | –
8 | c1cn2cc(-c3ccc4cn[nH]c4c3)nc(Nc3ccc(N4CCOCC4)cc3)c2n1 [Entospletinib] | > 5 | > 5 | – | > 5
9 | Cc1ccc(NC(=O)c2ccc(CN3CC[C@H](N(C)C)C3)c(C(F)(F)F)c2)cc1Nc1nccc(-c2cncnc2)n1 [Bafetinib] | > 1 | > 1 | 0.259 | –
10 | Cc1cc([C@@H](C)Nc2ccccc2C(=O)O)c2nc(N3CCOCC3)cc(=O)n2c1 [AZD-6482] | > 2.5 | > 2.5 | – | > 2.5
11 | COc1cc2nccc(Oc3ccc(NC(=O)NC4CC4)c(Cl)c3)c2cc1C(N)=O [Lenvatinib] | > 2.5 | > 2.5 | – | –
12 | Cc1cc(C)c(/C=C2\C(=O)Nc3ccccc32)[nH]1 [Semaxanib] | 2.28 | > 10 | – | > 10
13 | CCNc1nc(Nc2cc(F)c(C(=O)N3CCOCC3)cc2OC)ncc1C(F)(F)F [GNE-7915] | > 1 | > 1 | > 1 | –
14 | CNC(=O)[C@@H](NC(=O)[C@H](CC(C)C)[C@H](O)C(=O)NO)C(C)(C)C [Marimastat] | > 10 | > 10 | > 10 | –
15 | CN(C)C(=O)c1ccc(S(=O)(=O)c2ccc(NC(=O)[C@@](C)(O)C(F)(F)F)c(Cl)c2)cc1 [AZD7545] | > 10 | 3.91 | > 10 | –
16 | Nc1nc2[nH]cc(CCc3ccc(C(=O)N[C@@H](CCC(=O)O)C(=O)O)cc3)c2c(=O)[nH]1 [Pemetrexed] | > 10 | > 10 | – | 0.0641
17 | N#Cc1c(Oc2ccc(F)c(NC(=O)Cc3cccc(C(F)(F)F)c3)c2)ccc2nc(NC(=O)C3CC3)sc12 [TAK-632] | > 10 | 3.98 | – | 3.86
18 | O[C@H]1CC[C@H](Nc2ncc3nc(Nc4c(F)cc(F)cc4F)n([C@H]4CCOC4)c3n2)CC1 [Tanzisertib] | > 10 | > 10 | – | > 10
19 | Cc1nc(-c2cn3c(n2)-c2ccc(-c4cnn(C(C)(C)C(N)=O)c4)cc2OCC3)n(C(C)C)n1 [Taselisib] | > 1 | 0.425 | 0.0249 | –
20 | CCc1cc(Nc2nccc(-c3c(-c4ccc(OC)c(C(=O)Nc5c(F)cccc5F)c4)nc4ccccn34)n2)c(OC)cc1N1CCC(N2CCN(S(C)(=O)=O)CC2)CC1 | > 10 | > 10 | 0.0312 | –
21 | CCN(CC)CCN(Cc1ccc(-c2ccc(C(F)(F)F)cc2)cc1)C(=O)Cn1c(SCc2ccc(F)cc2)nc(=O)c2c1CCC2 [Darapladib] | 0.25 | 0.224 | – | 0.192

Row | Compound | relative IC50 (HS-PSS [1]) [µM] | relative IC50 (HS-PSS [2]) [µM] | relative IC50 (YST-1) [µM] | relative IC50 (HS-Sch-2) [µM]
22 | CNC(=O)c1cc(COc2nnc(Nc3ccc(Cl)cc3)c3ccoc23)ccn1 [Telatinib] | > 10 | > 10 | – | > 10
23 | CC1(C)CCC(CN2CCN(c3ccc(C(=O)NS(=O)(=O)c4ccc(NCC5CCOCC5)c([N+](=O)[O-])c4)c(Oc4cnc5[nH]ccc5c4)c3)CC2)=C(c2ccc(Cl)cc2)C1 [Venetoclax] | > 1 | > 1 | – | > 1
24 | Cc1cccc(CC(=O)N2CCc3c2ccc(-c2cn(C)c4ncnc(N)c24)c3F)n1 | – | 0.993 | – | –
25 | NC(=O)Nc1sc(-c2ccc(F)cc2)cc1C(N)=O [TPCA-1] | > 25 | 3.98 | 4.33 | –
26 | Nc1nc(N)c2nc(-c3cccc(O)c3)c(-c3cccc(O)c3)nc2n1 [TG100-115] | > 10 | > 10 | – | –
27 | CC1CCC(n2c3cnccc3c3cnc(Nc4ccc5c(n4)CCN(C(=O)CO)C5)nc32)CC1 (centres undefined) [AMG-925] | > 1 | > 1 | – | –
28 | NS(=O)(=O)NCCNc1nonc1/C(=N/O)Nc1ccc(F)c(Br)c1 [Epacadostat] | > 10 | > 10 | – | –
29 | CCC(C)n1ncn(-c2ccc(N3CCN(c4ccc(OCC5COC(Cn6cncn6)(c6ccc(Cl)cc6Cl)O5)cc4)CC3)cc2)c1=O (centres undefined) [Itraconazole] | > 5 | 0.904 | 1.54 | –
30 | Cc1c(C(=O)Nc2ccc(N3C[C@@H](C)O[C@@H](C)C3)nc2)cccc1-c1ccc(OC(F)(F)F)cc1 [Sonidegib] | > 10 | 0.76 | > 10 | –
31 | C[C@H]1Oc2cc(cnc2N)-c2c(nn(C)c2C#N)CN(C)C(=O)c2ccc(F)cc21 | > 1 | 0.0107 | > 1 | –
32 | O=c1[nH]c(C2CCCN2)nc2c1oc1ccc(Cl)cc12 (centres undefined) | – | 1.5 | 1.22 | –
33 | CNC(=O)CN1CCC(Oc2cc3c(Nc4cccc(Cl)c4F)ncnc3cc2OC)CC1 [Sapitinib] | > 1 | > 1 | – | –
34 | O=C(O)c1ccc(O)c2ncccc12 [IOX-1] | > 100 | > 100 | 36.6 | –
35 | CNC(=O)c1c(F)cccc1Nc1nc(Nc2cc3c(cc2OC)CCN3C(=O)CN(C)C)nc2[nH]ccc12 | – | 0.0321 | 0.073 | –
36 | O=C(O)CC1CC(c2ccccc2)=NO1 (centres undefined) [VGX-1027] | > 10 | > 10 | > 10 | –
37 | CNc1nc(-c2ccc3c(N)n[nH]c3c2)cc(N2C[C@@H](C(=O)NC3CCCCC3)CC[C@H]2C)n1 | > 10 | 3.05 | 0.585 | –
38 | CCN1CCN(Cc2ccc(Nc3ncc(F)c(-c4cc(F)c5nc(C)n(C(C)C)c5c4)n3)nc2)CC1 [Abemaciclib] | > 2.5 | – | 0.0275 | 1.01
39 | CCOc1ccn(-c2ccc(F)cc2)c(=O)c1C(=O)Nc1ccc(Oc2ccnc(N)c2Cl)c(F)c1 | > 2.5 | – | > 2.5 | > 2.5
40 | O=C(c1ccc(/C=C/c2n[nH]c3ccccc23)cc1)N1CCNCC1 [KW-2449] | > 2.5 | – | 0.509 | > 2.5
41 | COC(=O)c1ccc2c(c1)[nH]c1ncnc(NCCCN3CCCCC3)c12 [UM729] | > 10 | – | 0.56 | 3.14
